The record followed here is patent US7183415B2, “Quinoline compound” (Takeda Pharmaceutical Company Limited, priority 2001, dated 2007).

On to `COc1ccc(-c2ccc(C(=O)Nc3ccc4cc(CN5CCCCCC5)cnc4c3C)cc2)cc1` [Example 179, N-[3-(1-azepanylmethyl)-8-methyl-7-quinolinyl]-4′-methoxy[1,1′-biphenyl]-4-carboxamide], for which the melting point (usually the temperature of the solid-liquid transition) lay in the range of 165 to 167 °C.

As to `Cc1c(NC(=O)c2ccc(-c3ccc(F)cc3)cc2)ccc2cc(CN3CCCCCC3)cnc12` [Example 180, N-[3-(1-azepanylmethyl)-8-methyl-7-quinolinyl]-4′-fluoro[1,1′-biphenyl]-4-carboxamide], the melting point was in the range of 166 to 168 °C.

For the compound `COc1ccc(-c2ccc(C(=O)Nc3ccc4cc(CN5CCCCCC5)cnc4c3C)c(F)c2)cc1` [Example 185, N-[3-(1-azepanylmethyl)-8-methyl-7-quinolinyl]-3-fluoro-4′-methoxy[1,1′-biphenyl]-4-carboxamide], the melting point was in the range of 171 to 172 °C.

Consider `Cc1c(NC(=O)c2ccc(-c3ccc(F)cc3)cc2)ccc2cc(CN3CCC3)cnc12` [Example 191, N-[3-(1-azetidinylmethyl)-8-methyl-7-quinolinyl]-4′-fluoro[1,1′-biphenyl]-4-carboxamide], for which the melting point fell in the range of 153 to 155 °C.

Consider `Cc1c(NC(=O)c2ccc(-c3ccc(F)cc3)cc2)ccc2cc(CN3[C@H](C)CCC[C@@H]3C)cnc12` [Example 193, N-(3-{[(2R,6S)-2,6-dimethylpiperidinyl]methyl}-8-methyl-7-quinolinyl)-4′-fluoro[1,1′-biphenyl]-4-carboxamide], for which the melting point lay in the range of 167 to 168 °C.

Take `Cc1c(NC(=O)c2ccc(-c3ccc(F)cc3)cc2)ccc2cc(CN(C(C)C)C(C)C)cnc12` [Example 194, N-{3-[(diisopropylamino)methyl]-8-methyl-7-quinolinyl}-4′-fluoro[1,1′-biphenyl]-4-carboxamide]: the melting point is 179 to 180 °C.

In turn, `Cc1c(NC(=O)c2ccc(-c3ccc(F)cc3)cc2)ccc2cc(CN3CCOCC3)cnc12` [Example 198, 4′-fluoro-N-[8-methyl-3-(4-morpholinylmethyl)-7-quinolinyl][1,1′-biphenyl]-4-carboxamide] returned a melting point of 176 to 178 °C.

`Cc1c(NC(=O)c2ccc(-c3ccc(F)cc3)cc2)ccc2cc(CN3CCC(CC(N)=O)CC3)cnc12` [Example 200, N-(3-{[4-(2-amino-2-oxoethyl)-1-piperidinyl]methyl}-8-methyl-7-quinolinyl)-4′-fluoro[1,1′-biphenyl]-4-carboxamide] gave a melting point of 258 to 260 °C.

Compound `CNC(=O)CC1CCN(Cc2cnc3c(C)c(NC(=O)c4ccc(-c5ccc(F)cc5)cc4)ccc3c2)CC1` [Example 201, 4′-fluoro-N-[8-methyl-3-({4-[2-(methylamino)-2-oxoethyl]-1-piperidinyl}methyl)-7-quinolinyl][1,1′-biphenyl]-4-carboxamide] yielded a melting point of 229 to 231 °C.

Regarding `Cc1c(NC(=O)c2ccc(-c3ccc(F)cc3)cc2)ccc2cc(CN3CCC(CC(=O)N(C)C)CC3)cnc12` [Example 202, N-[3-({4-[2-(dimethylamino)-2-oxoethyl]-1-piperidinyl}methyl)-8-methyl-7-quinolinyl]-4′-fluoro[1,1′-biphenyl]-4-carboxamide], the melting point was 200 to 201 °C.

`CCNC(=O)CC1CCN(Cc2cnc3c(C)c(NC(=O)c4ccc(-c5ccc(F)cc5)cc4)ccc3c2)CC1` [Example 203, N-[3-({4-[2-(ethylamino)-2-oxoethyl]-1-piperidinyl}methyl)-8-methyl-7-quinolinyl]-4′-fluoro[1,1′-biphenyl]-4-carboxamide] showed a melting point of 243 to 245 °C.

`CCN(CC)C(=O)CC1CCN(Cc2cnc3c(C)c(NC(=O)c4ccc(-c5ccc(F)cc5)cc4)ccc3c2)CC1` [Example 204, N-[3-({4-[2-(diethylamino)-2-oxoethyl]-1-piperidinyl}methyl)-8-methyl-7-quinolinyl]-4′-fluoro[1,1′-biphenyl]-4-carboxamide] registered a melting point of 158 to 160 °C.

Turning to `Cc1c(NC(=O)c2ccc(-c3ccc(F)cc3)cc2)ccc2cc(CN3CCC(CC(=O)N4CCCCC4)CC3)cnc12` [Example 205, 4′-fluoro-N-[8-methyl-3-({4-[2-oxo-2-(1-piperidinyl)ethyl]-1-piperidinyl}methyl)-7-quinolinyl][1,1′-biphenyl]-4-carboxamide], the melting point was 189 to 190 °C.

In turn, `Cc1c(NC(=O)c2ccc(-c3ccc(F)cc3)cc2)ccc2cc(CN3CCC(CCCC(N)=O)CC3)cnc12` [Example 206, N-(3-{[4-(4-amino-4-oxobutyl)-1-piperidinyl]methyl}-8-methyl-7-quinolinyl)-4′-fluoro[1,1′-biphenyl]-4-carboxamide] displayed a melting point of 232 to 234 °C.

The compound `CNC(=O)CCCC1CCN(Cc2cnc3c(C)c(NC(=O)c4ccc(-c5ccc(F)cc5)cc4)ccc3c2)CC1` [Example 207, 4′-fluoro-N-[8-methyl-3-({4-[4-(methylamino)-4-oxobutyl]-1-piperidinyl}methyl)-7-quinolinyl][1,1′-biphenyl]-4-carboxamide] returned a melting point of 210 to 212 °C.

Regarding `Cc1c(NC(=O)c2ccc(-c3ccc(F)cc3)cc2)ccc2cc(CN3CCC(CCCC(=O)N(C)C)CC3)cnc12` [Example 208, N-[3-({4-[4-(dimethylamino)-4-oxobutyl]-1-piperidinyl}methyl)-8-methyl-7-quinolinyl]-4′-fluoro[1,1′-biphenyl]-4-carboxamide], the melting point was 202 to 204 °C.

`CCNC(=O)CCCC1CCN(Cc2cnc3c(C)c(NC(=O)c4ccc(-c5ccc(F)cc5)cc4)ccc3c2)CC1` [Example 209, N-[3-({4-[4-(ethylamino)-4-oxobutyl]-1-piperidinyl}methyl)-8-methyl-7-quinolinyl]-4′-fluoro[1,1′-biphenyl]-4-carboxamide]: the melting point was 217 to 220 °C.

As for `CCN(CC)C(=O)CCCC1CCN(Cc2cnc3c(C)c(NC(=O)c4ccc(-c5ccc(F)cc5)cc4)ccc3c2)CC1` [Example 210, N-[3-({4-[4-(diethylamino)-4-oxobutyl]-1-piperidinyl}methyl)-8-methyl-7-quinolinyl]-4′-fluoro[1,1′-biphenyl]-4-carboxamide], the melting point fell in the range of 145 to 146 °C.

The compound `Cc1c(NC(=O)c2ccc(-c3ccc(F)cc3)cc2)ccc2cc(CN3CCC(CCCC(=O)N4CCCCC4)CC3)cnc12` [Example 211, 4′-fluoro-N-[8-methyl-3-({4-[4-oxo-4-(1-piperidinyl)butyl]-1-piperidinyl}methyl)-7-quinolinyl][1,1′-biphenyl]-4-carboxamide] registered a melting point of 154 to 156 °C.

Regarding `Cc1cc2cc(CN3CCCC3)cnc2cc1NC(=O)c1ccc(-c2ccccc2F)cc1` [Example 213, 2′-fluoro-N-[6-methyl-3-(1-pyrrolidinylmethyl)-7-quinolinyl][1,1′-biphenyl]-4-carboxamide], the melting point was 148 to 149 °C.

The compound `Cc1cc2cc(CN3CCCC3)cnc2cc1NC(=O)c1ccc(-c2ccc(F)cc2F)cc1` [Example 214, 2′,4′-difluoro-N-[6-methyl-3-(1-pyrrolidinylmethyl)-7-quinolinyl][1,1′-biphenyl]-4-carboxamide] returned a melting point of 158 to 160 °C.

Compound `Cc1cc2cc(CN3CCCC3)cnc2cc1NC(=O)c1ccc(-c2ccc(C(F)(F)F)cc2)cc1` [Example 215, N-[6-methyl-3-(1-pyrrolidinylmethyl)-7-quinolinyl]-4′-(trifluoromethyl)[1,1′-biphenyl]-4-carboxamide] showed a melting point of 216 to 219 °C.
